Results reported in the supplement of paper PMC11061612.

Assays:
[1] = system: SK-GT-4 (Esophageal Adenocarcinoma); assay: Bliss excess, mean over the matrix (fraction); higher = more synergy
Outline: (§1)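 Bliss excess equals the observed combination effect minus the expected value EA + EB − EA·EB, where EA and EB are the effects of each agent alone. Combination Emax is the second-highest inhibition within the matrix. Inhibition was scaled from CellTiter-Glo 2.0 luminescence, with 0 set by vehicle wells and 1 by blank wells, after 72 hours of two-drug dosing of cells plated in 1536-well plates.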

[2] = system: H9 (T-Cell Non-Hodgkin's Lymphoma); assay: as above
Outline: as §1

[3] = system: CW-2 (Colorectal Carcinoma); assay: as above
Outline: as §1

[4] = system: T-T (Esophageal Squamous Cell Carcinoma); assay: as above
Outline: as §1

NCI-H2731 (Mesothelioma) = assay: as above
Outline: as §1

[5] = system: ESO51 (Esophageal Adenocarcinoma); assay: as above
Outline: as §1

[6] = system: KYSE-270 (Esophageal Squamous Cell Carcinoma); assay: as above
Outline: as §1

[7] = system: JHH-4 (Hepatocellular Carcinoma); assay: as above
Outline: as §1

[8] = system: MN-60 (B-Lymphoblastic Leukemia); assay: as above
Outline: as §1

[9] = system: COR-L279 (Small Cell Lung Carcinoma); assay: as above
Outline: as §1

[10] = system: SK-GT-2 (Gastric Carcinoma); assay: as above
Outline: as §1

[11] = system: VMRC-RCZ (Kidney Carcinoma); assay: as above
Outline: as §1

[12] = system: IM-95 (Gastric Carcinoma); assay: as above
Outline: as §1

[13] = system: NCI-H526 (Small Cell Lung Carcinoma); assay: as above
Outline: as §1

[14] = system: SU-DHL-5 (B-Cell Non-Hodgkin's Lymphoma); assay: as above
Outline: as §1

[15] = system: CHSA8926 (Chondrosarcoma); assay: as above
Outline: as §1

[16] = system: SUP-B15 (B-Lymphoblastic Leukemia); assay: as above
Outline: as §1

G-361 (Melanoma) = assay: as above
Outline: as §1

[17] = system: KU812 (Chronic Myelogenous Leukemia); assay: as above
Outline: as §1

[18] = system: SK-GT-2 (Gastric Carcinoma); assay: combination Emax (second highest fraction inhibited in the dose matrix, 72 h); higher = more inhibition; extreme values may be limits of the assay
Outline: as §1

Structure (SMILES) | Bliss excess [1] | Bliss excess [2] | Bliss excess [3] | Bliss excess [4] | Bliss excess (NCI-H2731 (Mesothelioma)) | Bliss excess [5] | Bliss excess [6] | Bliss excess [7] | Bliss excess [8] | Bliss excess [9] | Bliss excess [10] | Bliss excess [11] | Bliss excess [12] | Bliss excess [13] | Bliss excess [14] | Bliss excess [15] | Bliss excess [16] | Bliss excess (G-361 (Melanoma)) | Bliss excess [17] | combination Emax [18]
COc1cc2c(cc1OCCCCCOc1cc3c(cc1OC)C(=O)N1C=C(C)C[C@H]1C=N3)N=C[C@@H]1CC(C)=CN1C2=O [SG3199] + O=C(c1cc(Cc2n[nH]c(=O)c3ccccc23)ccc1F)N1CCN(C(=O)C2CC2)CC1 [Olaparib] (first compound max 0.001 µM, 7x7, partner max 10 µM) | -0.0661 | -0.0205 | -0.0126 | -0.0418 | -0.0505 | -0.0129 | -0.0595 | -0.0327 | -0.027 | -0.0351 | -0.0066 | -0.0461 | -0.0392 | -0.0148 | -0.027 | -0.0566 | -0.0051 | -0.0294 | -0.0288 | 0.12
CC1(C)CCC(CN2CCN(c3ccc(C(=O)NS(=O)(=O)c4ccc(NCC5CCOCC5)c([N+](=O)[O-])c4)c(Oc4cnc5[nH]ccc5c4)c3)CC2)=C(c2ccc(Cl)cc2)C1 [Venetoclax] + Cc1cc2ncnn2cc1Nc1ncc2c(n1)n(C1CCOCC1)c(=O)n2C [AZD7648] (first compound max 1 µM, 7x7, partner max 10 µM) | -0.093 | -0.0194 | 0.0049 | 0.0109 | -0.0272 | -0.0308 | -0.0281 | -0.0059 | -0.0125 | -0.0405 | -0.0053 | -0.0696 | -0.0192 | 0.0079 | -0.0362 | -0.0023 | -0.0374 | -0.0147 | -0.0174 | 0.155
Cc1nc(Nc2ncc(C(=O)Nc3c(C)cccc3Cl)s2)cc(N2CCN(CCO)CC2)n1 [Dasatinib] + CC(=O)Nc1cccc(-n2c(=O)n(C3CC3)c(=O)c3c(Nc4ccc(I)cc4F)n(C)c(=O)c(C)c32)c1 [Trametinib] (first compound max 2 µM, 7x7, partner max 1 µM) | -0.0415 | -0.193 | 0.0129 | 0.0381 | 0.0298 | -0.0066 | -0.0142 | -0.116 | -0.029 | -0.0073 | -0.0013 | -0.0257 | -0.0551 | -0.0323 | 0.0159 | -0.194 | -0.0562 | -0.0282 | -0.0046 | 0.545
Cc1c2c(nn1C)CSCc1cc(n(C)n1)CSc1cc(c3ccccc3c1)OCCCc1c(C(=O)O)n(C)c3c-2c(Cl)ccc13 [AZD5991] + C=CCn1c(=O)c2cnc(Nc3ccc(N4CCN(C)CC4)cc3)nc2n1-c1cccc(C(C)(C)O)n1 [AZD1775] (first compound max 1 µM, partner max 1 µM) | -0.0617 | -0.0337 | 0.04 | 0.0282 | -0.0336 | 0.011 | 0.013 | 0.0308 | -0.0077 | -0.0632 | -0.0033 | 0.0212 | 0.0201 | -0.0063 | 0.0028 | -0.0155 | 0.0171 | 0.0513 | -0.0284 | 0.809
CC1(C)CCC(CN2CCN(c3ccc(C(=O)NS(=O)(=O)c4ccc(NCC5CCOCC5)c([N+](=O)[O-])c4)c(Oc4cnc5[nH]ccc5c4)c3)CC2)=C(c2ccc(Cl)cc2)C1 [Venetoclax] + C1CN(CCC1(C(=O)N[C@@H](CCO)C2=CC=C(C=C2)Cl)N)C3=NC=NC4=C3C=CN4 [Capivasertib] (first compound max 1 µM, 7x7, partner max 3 µM) | -0.0728 | -0.02 | -0.0259 | 0.0155 | -0.066 | -0.0379 | 0.0002 | -0.054 | -0.0485 | 0.0055 | -0.0211 | -0.0236 | -0.0067 | -0.0095 | -0.0236 | -0.0364 | 0.0077 | -0.0618 | -0.046 | 0.162
Cc1cc2ncnn2cc1Nc1ncc2c(n1)n(C1CCOCC1)c(=O)n2C [AZD7648] + C=CCn1c(=O)c2cnc(Nc3ccc(N4CCN(C)CC4)cc3)nc2n1-c1cccc(C(C)(C)O)n1 [AZD1775] (first compound max 10 µM, partner max 1 µM) | -0.0515 | 0.0346 | 0.0419 | 0.002 | -0.0225 | -0.0433 | 0.0028 | 0.04 | -0.0316 | -0.0595 | -0.047 | 0.0117 | 0.0212 | 0.013 | 0.105 | 0.0382 | 0.0174 | 0.0081 | 0.0177 | 0.74
CC1(C)CCC(CN2CCN(c3ccc(C(=O)NS(=O)(=O)c4ccc(NCC5CCOCC5)c([N+](=O)[O-])c4)c(Oc4cnc5[nH]ccc5c4)c3)CC2)=C(c2ccc(Cl)cc2)C1 [Venetoclax] + Cn1cnc2c(F)c(Nc3ccc(Br)cc3Cl)c(C(=O)NOCCO)cc21 [Selumetinib] (first compound max 1 µM, 7x7, partner max 3 µM) | -0.0512 | 0.0054 | 0.0239 | 0.009 | -0.0525 | -0.0106 | -0.0202 | -0.0402 | -0.0478 | 0.0007 | -0.0251 | -0.0422 | -0.0187 | -0.011 | 0.0355 | -0.0455 | 0.108 | -0.0154 | -0.0125 | 0.0541
CN(CCO)CC[C@H](CSc1ccccc1)Nc1ccc(S(=O)(=O)NC(=O)c2ccc(N3CCC([C@@H](O)c4ccccc4-c4ccc(Cl)cc4)CC3)cc2)cc1S(=O)(=O)C(F)(F)F [AZD4320] + CCN(CCO)CCCOc1ccc2c(Nc3cc(CC(=O)Nc4cccc(F)c4)[nH]n3)ncnc2c1 [AZD2811] (first compound max 1 µM, 7x7, partner max 1 µM) | -0.0425 | -0.0247 | -0.0073 | 0.01 | -0.005 | 0.0025 | -0.0072 | -0.0226 | -0.0231 | 0.051 | 0.026 | -0.0508 | 0.134 | 0.105 | -0.143 | 0.0873 | 0.0255 | 0.0679 | -0.0082 | 0.554
CN(CCO)CC[C@H](CSc1ccccc1)Nc1ccc(S(=O)(=O)NC(=O)c2ccc(N3CCC([C@@H](O)c4ccccc4-c4ccc(Cl)cc4)CC3)cc2)cc1S(=O)(=O)C(F)(F)F [AZD4320] + C[C@@H]1COCCN1C2=NC(=NC(=C2)C3(CC3)[S@](=N)(=O)C)C4=C5C=CNC5=NC=C4 [AZD6738] (first compound max 1 µM, 7x7, partner max 10 µM) | -0.0873 | -0.0283 | -0.0321 | 0.0494 | -0.0178 | -0.0203 | 0.0161 | -0.0657 | -0.0472 | 0.0292 | 0.0109 | -0.0331 | -0.021 | -0.0302 | -0.0426 | -0.011 | 0.0245 | -0.0395 | 0.0007 | 0.633
COc1nnc2ccc(N3CCC(c4ccc(OCCN5CCN(C)C(=O)[C@H]5C)cc4)CC3)nn12 [AZD5153] + C[C@@H]1COCCN1C2=NC(=NC(=C2)C3(CC3)[S@](=N)(=O)C)C4=C5C=CNC5=NC=C4 [AZD6738] (first compound max 1 µM, 7x7, partner max 10 µM) | -0.0252 | -0.0108 | 0.0277 | -0.0179 | 0.0266 | -0.0476 | -0.0544 | 0.134 | -0.0638 | -0.0233 | 0.0773 | 0.0926 | 0.0268 | -0.044 | 0.0107 | 0.0437 | -0.012 | -0.0191 | -0.065 | 0.535
COc1nnc2ccc(N3CCC(c4ccc(OCCN5CCN(C)C(=O)[C@H]5C)cc4)CC3)nn12 [AZD5153] + Cn1cnc2c(F)c(Nc3ccc(Br)cc3Cl)c(C(=O)NOCCO)cc21 [Selumetinib] (first compound max 1 µM, 7x7, partner max 10 µM) | -0.0158 | 0.0074 | 0.0215 | 0.0702 | -0.0445 | -0.0408 | 0.0576 | 0.0336 | -0.0593 | -0.0778 | 0.0006 | -0.0486 | 0.0649 | -0.0183 | 0.0756 | -0.0599 | 0.101 | -0.107 | 0.0272 | 0.479
CN(C)CCCOc1ccc(-c2ccc3ncc4c(c3c2)n(C2CCOCC2)c(=O)n4C)cn1 [AZD0156] + C[C@@H]1COCCN1C2=NC(=NC(=C2)C3(CC3)[S@](=N)(=O)C)C4=C5C=CNC5=NC=C4 [AZD6738] (first compound max 1 µM, 7x7, partner max 10 µM) | -0.0006 | 0.0525 | -0.0131 | -0.014 | -0.0532 | -0.0449 | 0.0568 | -0.0317 | -0.0041 | -0.0547 | 0.0033 | -0.0479 | -0.0126 | -0.0051 | 0.0265 | -0.0328 | 0.0247 | 0.032 | -0.0299 | 0.311
CC1(C)CCC(CN2CCN(c3ccc(C(=O)NS(=O)(=O)c4ccc(NCC5CCOCC5)c([N+](=O)[O-])c4)c(Oc4cnc5[nH]ccc5c4)c3)CC2)=C(c2ccc(Cl)cc2)C1 [Venetoclax] + C[C@@H]1COCCN1C2=NC(=NC(=C2)C3(CC3)[S@](=N)(=O)C)C4=C5C=CNC5=NC=C4 [AZD6738] (first compound max 1 µM, 7x7, partner max 10 µM) | -0.0364 | 0.0113 | 0.0258 | -0.0286 | -0.0713 | -0.0093 | -0.0188 | -0.0399 | 0.0434 | 0.0287 | 0.0388 | -0.0262 | -0.0191 | 0.0144 | -0.0214 | -0.0216 | 0.0383 | -0.0132 | -0.0055 | 0.331
NC1(C(=O)N[C@@H](CCO)c2ccc(Cl)cc2)CCN(c2ncnc3[nH]ccc23)CC1 [Capivasertib] + CC(C)n1c(=O)n(C)c2cnc3cc(F)c(-c4ccc(OCCCN5CCCCC5)nc4)cc3c21 [AZD1390] (first compound max 10 µM, 7x7, partner max 0.3 µM) | -0.0586 | -0.0341 | -0.0469 | 0.0071 | -0.0169 | -0.0416 | -0.0296 | -0.0504 | -0.0685 | -0.0055 | -0.0342 | -0.035 | -0.0656 | 0.0062 | -0.0114 | -0.111 | -0.0059 | -0.0344 | -0.0037 | 0.338
